Test system: fecal microbiota KEGG pathways
Experiment: Shotgun metagenomic sequencing: KEGG pathway abundance (Table 2)
Assay type: in vivo, mice
Protocol: Illumina sequence reads were mapped to the human microbiome reference genome database of the Human Microbiome Project [www(dot)hmpdacc(dot)org/HMREFG/^32], and to a gut microbial gene catalogue^33 using GEM mapper^58 with the following parameters: • -m 3 -s 0 -q offset-33 -gem-quality-threshold 26
Microbial species abundance was measured as the fraction of reads that mapped to a single species in the database. An EM algorithm adapted from Pathoscope^59 was employed to determine the correct assignment of reads that mapped to more than one species. We considered only species for which at least 10% of the genome was covered (each coverage bin was 10,000-bp long) in at least one of the growth conditions (saccharin, water, or glucose). Reads mapped to the gut microbial gene catalogue were assigned a KEGG^34,35 ID according to the mapping available with the catalogue. Genes were subsequently mapped to KEGG pathways, and only pathways whose gene coverage was above 0.2 were included.

Structure (SMILES): O=C1NS(=O)(=O)c2ccccc21 [saccharin]
- glycan degradation pathways abundance (GF mice transplanted with microbiomes cultured in vitro with 5 mgml^−1 saccharin vs PBS): highly enriched
- Log_fold change: 2-Oxocarboxylic acid metabolism (In vivo (week 11/week 0)): 0.10
- Log_fold change: ABC transporters (In vivo (week 11/week 0)): 0.02
- Log_fold change: Alanine, aspartate and glutamate metabolism (In vivo (week 11/week 0)): 0.02
- Log_fold change: Amino sugar and nucleotide sugar metabolism (In vivo (week 11/week 0)): 0.09
- Log_fold change: Aminoacyl-tRNA biosynthesis (In vivo (week 11/week 0)): −0.13
- Log_fold change: Aminobenzoate degradation (In vivo (week 11/week 0)): 0.04
- Log_fold change: Arginine and proline metabolism (In vivo (week 11/week 0)): 0.05
- Log_fold change: Ascorbate and aldarate metabolism (In vivo (week 11/week 0)): 0.27
- Log_fold change: Atrazine degradation (In vivo (week 11/week 0)): 0.12
- Log_fold change: Bacterial chemotaxis (In vivo (week 11/week 0)): 0.30
- Log_fold change: Bacterial secretion system (In vivo (week 11/week 0)): −0.10
- Log_fold change: Base excision repair (In vivo (week 11/week 0)): 0.03
- Log_fold change: Benzoate degradation (In vivo (week 11/week 0)): 0.00
- Log_fold change: Biosynthesis of amino acids (In vivo (week 11/week 0)): 0.03
- Log_fold change: Biosynthesis of siderophore group nonribosomal peptides (In vivo (week 11/week 0)): 0.16
- Log_fold change: Biosynthesis of unsaturated fatty acids (In vivo (week 11/week 0)): −0.07
- Log_fold change: Biotin metabolism (In vivo (week 11/week 0)): 0.13
- Log_fold change: Bisphenol degradation (In vivo (week 11/week 0)): 0.04
- Log_fold change: Butanoate metabolism (In vivo (week 11/week 0)): 0.00
- Log_fold change: CS-Branched dibasic acid metabolism (In vivo (week 11/week 0)): 0.11
- Log_fold change: Caprolactam degradation (In vivo (week 11/week 0)): 0.29
- Log_fold change: Carbon fixation in photosynthetic organisms (In vivo (week 11/week 0)): −0.13
- Log_fold change: Carbon fixation pathways in prokaryotes (In vivo (week 11/week 0)): 0.01
- Log_fold change: Carbon metabolism (In vivo (week 11/week 0)): 0.00
- Log_fold change: Cell cycle-Caulobacter (In vivo (week 11/week 0)): −0.06
- Log_fold change: Chloroalkane and chloroalkene degradation (In vivo (week 11/week 0)): −0.07
- Log_fold change: Citrate cycle (TCA cycle) (In vivo (week 11/week 0)): 0.03
- Log_fold change: Cyanoamino acid metabolism (In vivo (week 11/week 0)): 0.18
- Log_fold change: Cysteine and methionine metabolism (In vivo (week 11/week 0)): −0.02
- Log_fold change: D-Alanine metabolism (In vivo (week 11/week 0)): −0.10
- Log_fold change: D-Arginine and D-ornithine metabolism (In vivo (week 11/week 0)): −0.08
- Log_fold change: D-Glutamine and D-glutamate metabolism (In vivo (week 11/week 0)): −0.04
- Log_fold change: DDT degradation (In vivo (week 11/week 0)): −0.61
- Log_fold change: DNA replication (In vivo (week 11/week 0)): −0.06
- Log_fold change: Dioxin degradation (In vivo (week 11/week 0)): −0.34
- Log_fold change: Drug metabolism-other enzymes (In vivo (week 11/week 0)): 0.05
- Log_fold change: Ether lipid metabolism (In vivo (week 11/week 0)): 0.05
- Log_fold change: Fatty acid biosynthesis (In vivo (week 11/week 0)): 0.05
- Log_fold change: Fatty acid degradation (In vivo (week 11/week 0)): −0.03
- Log_fold change: Fatty acid metabolism (In vivo (week 11/week 0)): 0.06
- Log_fold change: Flagellar assembly (In vivo (week 11/week 0)): −0.18
- Log_fold change: Folate biosynthesis (In vivo (week 11/week 0)): 0.13
- Log_fold change: Fructose and mannose metabolism (In vivo (week 11/week 0)): 0.18
- Log_fold change: Galactose metabolism (In vivo (week 11/week 0)): 0.24
- Log_fold change: Geraniol degradation (In vivo (week 11/week 0)): 0.04
- Log_fold change: Glutathione metabolism (In vivo (week 11/week 0)): 0.12
- Log_fold change: Glycerolipid metabolism (In vivo (week 11/week 0)): 0.11
- Log_fold change: Glycerophospholipid metabolism (In vivo (week 11/week 0)): 0.06
- Log_fold change: Glycine, serine and threonine metabolism (In vivo (week 11/week 0)): 0.13
- Log_fold change: Glycolysis/Gluconeogenesis (In vivo (week 11/week 0)): −0.09
- Log_fold change: Glycosaminoglycan degradation (In vivo (week 11/week 0)): 0.34
- Log_fold change: Glycosphingolipid biosynthesis-globoseries (In vivo (week 11/week 0)): 0.33
- Log_fold change: Glyoxylate and dicarboxylate metabolism (In vivo (week 11/week 0)): 0.13
- Log_fold change: Histidine metabolism (In vivo (week 11/week 0)): 0.13
- Log_fold change: Homologous recombination (In vivo (week 11/week 0)): −0.09
- Log_fold change: Inositol phosphate metabolism (In vivo (week 11/week 0)): −0.01
- Log_fold change: Limonene and pinene degradation (In vivo (week 11/week 0)): 0.04
- Log_fold change: Lipoicacid metabolism (In vivo (week 11/week 0)): 0.36
- Log_fold change: Lipopolysaccharide biosynthesis (In vivo (week 11/week 0)): 0.21
- Log_fold change: Lysine biosynthesis (In vivo (week 11/week 0)): −0.07
- Log_fold change: Lysine degradation (In vivo (week 11/week 0)): 0.14
- Log_fold change: Methane metabolism (In vivo (week 11/week 0)): 0.02
- Log_fold change: Mismatch repair (In vivo (week 11/week 0)): −0.03
- Log_fold change: Naphthalene degradation (In vivo (week 11/week 0)): 0.04
- Log_fold change: Nicotinate and nicotinamide metabolism (In vivo (week 11/week 0)): −0.05
- Log_fold change: Nitrogen metabolism (In vivo (week 11/week 0)): 0.00
- Log_fold change: Nitrotoluene degradation (In vivo (week 11/week 0)): −0.22
- Log_fold change: Novobiocin biosynthesis (In vivo (week 11/week 0)): 0.29
- Log_fold change: Nucleotide excision repair (In vivo (week 11/week 0)): −0.08
- Log_fold change: One carbon pool by folate (In vivo (week 11/week 0)): 0.07
- Log_fold change: Other glycan degradation (In vivo (week 11/week 0)): 0.36
- Log_fold change: Oxidative phosphorylation (In vivo (week 11/week 0)): −0.03
- Log_fold change: Pantothenate and CoA biosynthesis (In vivo (week 11/week 0)): 0.04
- Log_fold change: Penicillin and cephalosporin biosynthesis (In vivo (week 11/week 0)): 0.00
- Log_fold change: Pentose and glucuronate interconversions (In vivo (week 11/week 0)): 0.31
- Log_fold change: Pentose phosphate pathway (In vivo (week 11/week 0)): 0.03
- Log_fold change: Peptidoglycan biosynthesis (In vivo (week 11/week 0)): 0.01
- Log_fold change: Phenylalanine metabolism (In vivo (week 11/week 0)): 0.30
- Log_fold change: Phenylalanine, tyrosine and tryptophan biosynthesis (In vivo (week 11/week 0)): 0.24
- Log_fold change: Phosphonate and phosphinate metabolism (In vivo (week 11/week 0)): 0.30
- Log_fold change: Phosphotransferase system (PTS) (In vivo (week 11/week 0)): −0.43
- Log_fold change: Porphyrin and chlorophyll metabolism (In vivo (week 11/week 0)): 0.23
- Log_fold change: Propanoate metabolism (In vivo (week 11/week 0)): 0.02
- Log_fold change: Protein export (In vivo (week 11/week 0)): −0.04
- Log_fold change: Proximal tubule bicarbonate reclamation (In vivo (week 11/week 0)): −0.01
- Log_fold change: Purine metabolism (In vivo (week 11/week 0)): −0.08
- Log_fold change: Pyrimidine metabolism (In vivo (week 11/week 0)): −0.08
- Log_fold change: Pyruvate metabolism (In vivo (week 11/week 0)): 0.01
- Log_fold change: RNA degradation (In vivo (week 11/week 0)): −0.05
- Log_fold change: Riboflavin metabolism (In vivo (week 11/week 0)): −0.02
- Log_fold change: Ribosome (In vivo (week 11/week 0)): −0.24
- Log_fold change: Selenocompound metabolism (In vivo (week 11/week 0)): 0.03
- Log_fold change: Sphingolipid metabolism (In vivo (week 11/week 0)): 0.34
- Log_fold change: Starch and sucrose metabolism (In vivo (week 11/week 0)): 0.19
- Log_fold change: Streptomycin biosynthesis (In vivo (week 11/week 0)): 0.10
- Log_fold change: Styrene degradation (In vivo (week 11/week 0)): −0.06
- Log_fold change: Sulfur metabolism (In vivo (week 11/week 0)): 0.19
- Log_fold change: Sulfur relay system (In vivo (week 11/week 0)): −0.03
- Log_fold change: Synthesis and degradation of ketone bodies (In vivo (week 11/week 0)): −0.35
- Log_fold change: Taurine and hypotaurine metabolism (In vivo (week 11/week 0)): 0.14
- Log_fold change: Terpenoid backbone biosynthesis (In vivo (week 11/week 0)): 0.04
- Log_fold change: Tetracycline biosynthesis (In vivo (week 11/week 0)): −0.50
- Log_fold change: Thiamine metabolism (In vivo (week 11/week 0)): −0.03
- Log_fold change: Tropane, piperidine and pyridine alkaloid biosynthesis (In vivo (week 11/week 0)): 0.27
- Log_fold change: Tryptophan metabolism (In vivo (week 11/week 0)): 0.01
- Log_fold change: Two−component system (In vivo (week 11/week 0)): 0.06
- Log_fold change: Tyrosine metabolism (In vivo (week 11/week 0)): 0.02
- Log_fold change: Ubiquinone and other terpenoid-quinone biosynthesis (In vivo (week 11/week 0)): 0.03
- Log_fold change: Valine, leucine and isoleucine biosynthesis (In vivo (week 11/week 0)): 0.10
- Log_fold change: Valine, leucine and isoleucine degradation (In vivo (week 11/week 0)): 0.06
- Log_fold change: Vibriocholerae pathogenic cycle (In vivo (week 11/week 0)): −0.01
- Log_fold change: Vitamin B6 metabolism (In vivo (week 11/week 0)): 0.16
- Log_fold change: Xylene degradation (In vivo (week 11/week 0)): −0.51
- Log_fold change: beta-Alanine metabolism (In vivo (week 11/week 0)): 0.14
- Log_fold change: beta-Lactam resistance (In vivo (week 11/week 0)): 0.11
- KEGG pathways incl. ascorbate and aldarate metabolism, lipopolysaccharide biosynthesis, bacterial chemotaxis (mice consuming HFD and pure saccharin vs water): multiple enriched pathways
- starch and sucrose, fructose and mannose metabolism, folate-, glycerolipid- and fatty acid biosynthesis pathways (microbiomes of saccharin consuming mice): enriched
- glucose transport pathways (saccharin-consuming mice): underrepresented
- glycan degradation pathways abundance (saccharin-consuming mice, week 11 vs week 0): strong increase

— patent US20190022152A1, “MICROBIOME RESPONSE TO AGENTS” (Yeda Research and Development Co., Ltd., priority 2014, published 2019)
